Here are results for 9 compounds from patent US20090318470A1, “1-SUBSTITUTED-3-(NAPHTHALEN-1-YLSULFONYL)-5-(PIPERAZIN-1-YL)-1H-INDAZOLE COMPOUNDS AS 5-HYDROXYTRYPTAMINE-6 LIGANDS” (Wyeth, priority 2008, published 2009).

Counter-ions that a name gives are not always drawn. Like-named read-outs stand apart in the source and are kept apart here. Bounds are passed on as bounds.

A short description of series [1]: Pharmacokinetics following a single oral dose. Also on record: species or system Male Long Evans Rats. The note with it: male, Long Evans, rat, in vivo; for bioavailability: po, 10 mg/kg, Table 1, obtained according to Example 10; for AUC(0-inf): single oral dose of 10 mg/kg. The protocol: (§1) Pharmacokinetics and CNS Penetration of Compounds were Determined Using HPLC Analysis of the Prepared Samples and Presented in Tables 2, 3, & 4 Below
(§2) Male Long Evans Rats were dosed with the candidate drug substance at the dosage amount and route listed above using standard pharmacokinetic procedures (Applied Biopharmaceutics & Pharmacokinetics, Shargel, L and Yu, A, 4th Ed 1999, McGraw-Hill, N.Y.; Welling, P G, Pharmacokinetics, Process and Mathematics, ACS Monograph 185, American Chemical Society 1986, Washington, D.C.; Lee, P and Amidon, G L, Pharmacokinetic Analysis-A Practical Approach, Technomic Pub Co Lancaster Pa. 1996)).

A short description of series [2]: CNS penetration following a single intraperitoneal dose. The note with it: for Kp: male, Long Evans, rat, brain and plasma, read-out: Brain/plasma ratio. The class given is in vivo, Male Long Evans Rats.
A short description of series [3]: Pharmacokinetics following a single IV bolus. Set-up: species or system Male Long Evans Rats. The note with it: male, Long Evans, rat, in vivo; single IV bolus at 2 mg/kg, n = 3. The protocol:
as §1, §2

Series [4] addresses T1, serotonin 5HT6 receptor subtype (Homo sapiens, UniProt P50406).
T1 construct: host or cells: CHO-Dukx-A2 cells, clone 50-7
Nature of the series: 5HT6 Binding Affinity ([3H]-LSD SPA binding).

Series [5] is described as follows: Microsomal stability, rat. The class given is in vitro ADME. The following applies: Rat microsomes. The protocol:
(§3) Compounds listed in Table 5, column A, are prepared as described in U.S. Pat. No. 7,238,696. Each of the compounds in Table 5, columns A and B, were screen according to the microsomal stability procedure described in Di et al., Journal of Biomolecular Screening 2003:453-462.

Series [6] in a line: Microsomal stability, human. It is filed as in vitro ADME. The note with it: Human microsomes. The protocol: as §3
Where [7] appears, read: intraperitoneal, 10 mg/mL, Table 1, obtained according to Example 10.
Where [8] appears, read: ip, Table 4, single intraperitoneal dose of 10 mg/kg, n = 3.
Setting [9] is: CHO-Dukx-A2 cells expressing 5HT6, 3 nM [3H]-LSD, Cheng-Prusoff, read-out: 5HT6 Ki.

T1 sequence (P50406 whole entry): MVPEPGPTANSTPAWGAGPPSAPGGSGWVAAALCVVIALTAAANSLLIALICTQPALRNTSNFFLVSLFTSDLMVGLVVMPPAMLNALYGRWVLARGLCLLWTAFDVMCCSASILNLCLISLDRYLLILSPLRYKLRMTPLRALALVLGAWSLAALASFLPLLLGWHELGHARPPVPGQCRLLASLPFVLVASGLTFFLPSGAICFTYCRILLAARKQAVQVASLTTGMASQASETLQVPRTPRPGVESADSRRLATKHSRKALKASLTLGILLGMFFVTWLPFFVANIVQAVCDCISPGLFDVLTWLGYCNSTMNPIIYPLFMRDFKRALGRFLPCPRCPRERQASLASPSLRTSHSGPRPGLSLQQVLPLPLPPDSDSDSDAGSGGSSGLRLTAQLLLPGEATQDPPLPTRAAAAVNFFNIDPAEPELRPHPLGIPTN

In the case of `O=S(=O)(c1cccc2ccccc12)c1n[nH]c2ccc(N3CCNCC3)cc12` [Compound C, 3-(naphthalen-1-ylsulfonyl)-5-(piperazin-1-yl)-1H-indazole dihydrochloride, reference compound], the bioavailability (as a rule, the share of a dose that reaches the circulation, judged against a reference dose that is usually intravenous) in series [1] was 3%. The AUC(0-inf) (usually the area under the concentration-time curve extrapolated to infinity) in series [1] came out at 119 ng·h/mL; in series [3], 390 ng·h/mL. Besides, the Kp in series [2] (setting [7]) and in series [2] (setting [8]) was less than 0.01 each time. In addition, in series [2] (matrix brain, single intraperitoneal dose of 10 mg/kg, n = 3), the AUClast result was “Not detectable”. For the same compound, the inhibition constant (Ki) – broadly, the equilibrium dissociation constant of an inhibitor or competing ligand from its target – in series [4] was 0.8 nM.
With `CC(C)Cn1nc(S(=O)(=O)c2cccc3ccccc23)c2cc(N3CCNCC3)ccc21` [Example 1, 1-Isobutyl-3-(naphthalen-1-ylsulfonyl)-5-(piperazin-1-yl)-1H-indazole dihydrochloride], in series [1], the bioavailability was 22%. The values for the AUC(0-inf) in series [1] and in series [3] were 413 ng·h/mL and 378 ng·h/mL, respectively. Also, the Kp in series [2] (setting [7]) and in series [2] (setting [8]) was 0.81 each time. The “Microsomal Stability” value in series [5] is listed as 24 min; in series [6] it was greater than 30 min. Moreover, the Ki in series [4] (setting [9]) was 4.6 nM.
As to `O=S(=O)(c1cccc2ccccc12)c1nn(Cc2ccccc2)c2ccc(N3CCNCC3)cc12` [Example 2, 1-Benzyl-3-(naphthalene-1-sulfonyl)-5-piperazin-1-yl-1H-indazole dihydrochloride], the bioavailability in series [1] turned out to be 50%. The AUC(0-inf) is 2100 ng·h/mL in series [1] and 843 ng·h/mL in series [3]. For the same compound, the Kp in series [2] (setting [7]) and in series [2] (setting [8]) was 0.26 in each case. Besides, the results for the “Microsomal Stability” value in series [5] and in series [6] were 25 min and 13 min, respectively. The inhibition constant Ki in series [4] (setting [9]) came out at 7.5 nM.
Turning to `O=S(=O)(c1cccc2ccccc12)c1nn(Cc2cccc(Cl)c2)c2ccc(N3CCNCC3)cc12` [Example 3, 1-(3-Chlorobenzyl)-5-(piperazin-1-yl)-3-(naphthalen-1-ylsulfonyl)-1H-indazole dihydrochloride], the Ki in series [4] (setting [9]) came out at 23.5 nM.
`CC(=O)n1nc(S(=O)(=O)c2cccc3ccccc23)c2cc(N3CCNCC3)ccc21` [Example 4, 1-(3-(Naphthalen-1-ylsulfonyl)-5-(piperazin-1-yl)-1H-indazol-1-yl)ethanone hydrochloride]: the Ki in series [4] (setting [9]) worked out at 1 nM.
`Cn1nc(S(=O)(=O)c2cccc3ccccc23)c2cc(N3CCNCC3)ccc21` [Example 5, 1-Methyl-3-(naphthalen-1-ylsulfonyl)-5-(piperazin-1-yl)-1H-indazole dihydrochloride]: the Kp in series [2] (setting [7]) worked out at 0.3. The Ki in series [4] (setting [9]) came out at 1.6 nM.
For `CCn1nc(S(=O)(=O)c2cccc3ccccc23)c2cc(N3CCNCC3)ccc21` [Example 6, 1-Ethyl-3-(naphthalen-1-ylsulfonyl)-5-(piperazin-1-yl)-1H-indazole dihydrochloride], in that order: 0.45 and 1.9 nM.
In the case of `CCCn1nc(S(=O)(=O)c2cccc3ccccc23)c2cc(N3CCNCC3)ccc21` [Example 7, 3-(Naphthalen-1-ylsulfonyl)-5-(piperazin-1-yl)-1-propyl-1H-indazole dihydrochloride], the Ki in series [4] (setting [9]) was 2.2 nM.
For `CC(C)n1nc(S(=O)(=O)c2cccc3ccccc23)c2cc(N3CCNCC3)ccc21` [Example 8, 1-Isopropyl-3-(naphthalen-1-ylsulfonyl)-5-(piperazin-1-yl)-1H-indazole dihydrochloride], in series [2] (setting [7]), the Kp was 0.36. Moreover, the “Microsomal Stability” value in series [5] and in series [6] was greater than 30 min in each case. The Ki in series [4] (setting [9]) came to 3 nM.
